Assay results published in patent US6593373B2, “Pharmaceutical compositions of O-desmethyl-N-mono-desmethyl-tramadol” (Gruenenthal GmbH, priority 2000, dated 2003).
Like-named read-outs stand apart in the source and are kept apart here.

What was measured:
mice tail-flick = experiment: Tail-flick test; settings: for Tail-Flick, mouse ED50 i.c.v. / Tail-Flick, mouse ED50 i.v. / Analgesia in tail-flick test, in words: mouse
Method: Analgesia was tested in vivo in the mice tail-flick test. M5 was first intravenously administered and then directly into a brain ventricle.

[1] = system: mice phenylquinone writhing; experiment: Phenylquinone writhing test; assay type: in vivo
Method: Analgesia was tested in vivo in the mice phenylquinone writhing test. M5 was intravenously administered.

[2] = system: neuronal uptake of norepinephrine (NE); experiment: Noradrenaline uptake inhibition, in vitro rat brain; assay type: biochemical; settings: for IC50: read-out: Noradrenalin uptake IC50
Excerpt: The inhibition of neuronal uptake of monoamines (norepinephrine; NE) was investigated in in vitro rat brain binding experiments.

[3] = system: neuronal uptake of Serotonin (5-HT); assay type: biochemical; settings: rat brain
Excerpt: The inhibition of neuronal uptake of Serotonin (5-HT) was investigated in in vitro rat brain binding experiments.

μ-opioid receptor = biological target: T1, μ-opioid receptor (Rattus norvegicus, UniProt P33535); experiment: μ-opioid (Naloxon) binding, in vitro rat brain
T1 construct: from tissue; host or cells: rat brain
Excerpt: The μ-opioid receptor binding was investigated in in vitro rat brain binding experiments using naloxone.

[4] = rat brain, naloxone, read-out: Naloxone binding IC50

T1 sequence (P33535 whole entry): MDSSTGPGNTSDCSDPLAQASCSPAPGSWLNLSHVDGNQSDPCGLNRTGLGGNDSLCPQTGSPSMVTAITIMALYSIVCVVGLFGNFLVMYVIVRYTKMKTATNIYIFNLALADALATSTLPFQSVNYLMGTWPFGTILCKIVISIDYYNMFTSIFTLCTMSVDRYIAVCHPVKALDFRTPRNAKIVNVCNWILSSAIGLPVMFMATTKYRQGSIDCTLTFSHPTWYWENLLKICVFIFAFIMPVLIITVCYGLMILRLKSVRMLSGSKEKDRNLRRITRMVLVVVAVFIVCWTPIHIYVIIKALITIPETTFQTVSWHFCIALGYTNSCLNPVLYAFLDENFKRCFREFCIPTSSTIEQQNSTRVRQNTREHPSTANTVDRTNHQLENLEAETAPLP

SMILES	ED50 (mice tail-flick; Mus musculus, iv, read-out: Tail-Flick, mouse ED50 i.v.)	Tail-Flick, mouse ED50 i.c.v. (mice tail-flick)	Writhing, mouse ED50 i.c.v. [1]	ED50 ([1]; iv, mouse)	IC50 [2]	Tail-Flick, mouse ED50 i.v. (mice tail-flick)	IC50 [3]	Writhing, mouse ED50 i.v. [1]	IC50 (μ-opioid receptor; [4])	IC50 (μ-opioid receptor)	μ-opioid receptor affinity (naloxone binding), in words (μ-opioid receptor; rat brain)	Inhibition of norepinephrine uptake, in words [2]	Penetration of the blood brain barrier, in words (mice tail-flick; concluded from i.v. versus i.c.v. analgesia)	Analgesia in tail-flick test, in words (mice tail-flick; direct administration into a brain ventricle)	Analgesia in tail-flick test, in words (mice tail-flick; intravenously administered)	Inhibition of serotonin uptake, in words [3]	Analgesia in writhing test, in words ([1]; mouse, intravenous administration)
COc1cccc([C@@]2(O)CCCC[C@@H]2CN(C)C)c1 (racemic) [Tramadol, (1RS, 2RS)-2[(dimethylamino)methyl]-1-(3-methoxyphenyl)-cyclohexanol]	13.6 mg/kg	98.0 μg/animal	67.3 μg/animal	6.93 mg/kg													
CN(C)C[C@H]1CCCC[C@]1(O)c1cccc(O)c1 [M1]		2.1 μg/animal	0.58 μg/animal		41.4 µM	1.90 mg/kg	24.2 µM	0.49 mg/kg									
CNCC1CCCCC1(O)c1cccc(OC)c1 (stereo not drawn) [M2]					4.27 µM	no effect	10.4 µM	no effect	49.1 µM								
COc1cccc([C@@]2(O)CCCC[C@@H]2CN)c1 [M3]					47.7 µM	no effect	48.9 µM	no effect	204 µM								
NC[C@H]1CCCC[C@]1(O)c1cccc(O)c1 [M4]					104 µM	no effect	375 µM	no effect	23.9 µM								
CNCC1CCCCC1(O)c1cccc(O)c1 (stereo not drawn) [M5, O-desmethyl-N-mono-desmethyl-tramadol]		32.4 μg/animal	4.99 μg/animal		13.3 µM	no effect	120 µM	no effect		0.31 µM	strong enough to induce in vivo analgesia	no pronounced effect	poor penetration of the blood brain barrier	a pronounced effect was seen	no pronounced effect	no pronounced effect	no pronounced effect
